Data on 2 compounds can be found in US11091476B2, “Protein kinase inhibitors, preparation method and medical use thereof” (Gan & Lee Pharmaceuticals, priority 2015, dated 2021).

One assay has as its target CDK1/CyclinA2 (Homo sapiens (Human), UniProt P06493). Put plainly: CDK kinase inhibitory activity, ADP-Glo Kinase Assay, CDK1/CyclinA2. The format is biochemical. For orientation: In ADP-Glo the light output rises with the ADP produced.
The subject of assay [1] is U87-luc orthotopic brain xenograft. Put plainly: Pharmacodynamic study in U87-luc orthotopic brain xenograft model, median survival. The format is in vivo, BALB/c nude mice. To be noted: for Medium survival: survival time range in brackets. An excerpt: Pharmacodynamic study of the compound 17 of this disclosure and the combination of compound 17 of the disclosure and temozolomide in a U87-luc orthotopic brain xenograft model
Adult female BALB/c nude mice were used as test animals. A U87-luc orthotopic brain xenograft model was used to study the effect of representative compound 17 of this disclosure on the median survival of female BALB/c nude mice after intragastric administration.
Healthy adult female BALB/c nude mice, 8 mice/group, 6-8 weeks old, weighing 18-22 g, purchased from Shanghai SIPPR-BK Laboratory Animal Co., Ltd., Animal Production License No: 2008001658261; 2008001658263. • 7.2.3 Preparation of the test compounds
An appropriate amount of compound 17 was weighed, and added with 0.1% hydroxyethyl cellulose/0.5% TWEEN®80 as vehicle to 0.3125 mg/ml;
An appropriate amount of Temozolomide sample was weighed, and added with 0.1% CMC-Na+0.25% TWEEN®80 as vehicle to 0.3 mg/ml.
Adult female BALB/c nude mice were anesthetized by intraperitoneal injection of sodium pentobarbital at a dose of 80 mg/kg. To relieve pain, animals were injected subcutaneously with buprenorphine at the time points 30 minutes before operation and 6 hours after operation at a dose of 0.1 mg/kg. Animals were observed after anesthesia until all animals had awakened.
The anesthetized animals were properly fixed, the animals' head skin was sterilized with 70% ethanol, and an approximately 10 mm long incision was made on the right side of the midline from the forehead to the ear line. 3×10^5 U87-luc cells (3 μl, mixture of PBS and Matrigel at a ratio of 4:1) were inoculated at the right frontal lobe that is 2 mm away from the right side of the bregma and is 1 mm away from the front side of the coronal suture in each animal. The incision was sutured with a No. 6 suture, and sterilized with polyvinylpyrrolidone. Animals are kept warm until anabiosis. Six days after tumor cell transplantation, tumor animals were grouped by stratified randomization based on […] signal intensity values, and the average bioluminescence reached 2.812E+07 photons/sec when the groups were administered in groups. Different animal groups were administered at different doses for a total of 35 days.

On to `CCN1CCC(c2ccc(Nc3ncc(F)c(-c4cc(F)c5c(c4)C4(CCCC4)C(C)=N5)n3)nc2)CC1` [Example 12, N-(5-(1-ethylpiperidin-4-yl)pyridin-2-yl)-5-fluoro-4-(7′-fluoro-2′-methylspiro [cyclopentane-1,3′-indol]-5′-yl)pyrimidine-2-amino], for which the IC50 (commonly the point on the concentration scale where inhibition reaches its midpoint) on CDK1/CyclinA2 was determined as 1070 nM.

As to `CC1=Nc2c(F)cc(-c3nc(Nc4ccc(C5CCN(C)CC5)cn4)ncc3F)cc2C12CCCC2` [Example 17, 5-Fluoro-4-(7′-fluoro-2′-methylspiro[cyclopentane-1,3′-indol]-5′-yl)-N-(5-(1-methylpiperidin-4-yl)pyridin-2-yl)pyrimidine-2-amino], the IC50 against CDK1/CyclinA2 turned out to be 2710 nM. In addition, the Medium survival in assay [1] (3.125 mg/kg QD intragastric) is given as 38.5(26-59) days; in assay [1] (6.25 mg/kg QD intragastric), 43.5(31-48) days; in assay [1] (12.5 mg/kg QD intragastric), 44.5(31-114) days; in assay [1] (25 mg/kg QD intragastric), 61(41-76) days; in assay [1] (50 mg/kg QD intragastric), 78.5(63->114) days. Besides, the “Effect on median survival, in words” value in assay [1] (dose-dependent) is on record as “significantly prolong the median survival”.
